Data as given in patent US12630516B2, “Compounds” (NRG Therapeutics Ltd., priority 2020, dated 2026).
≈ marks a conversion by molar mass, not a printed value. Blank lines part the entries; values can stand above or below the molecule they belong to.

Columns and labels:
mPTP = mPTP activity (Ca2+ retention, Fluo5N FLIPR) assay in isolated rat liver mitochondria; assay type: biochemical; conditions: average value from multiple experiments (n ≥ 2)
From the text: Pharmacological inhibition or modulation of the mPTP can be measured in well characterised ‘Ca^2+ retention’ assays performed in isolated mitochondria. In vitro, isolated mitochondria rapidly sequester exogenous Ca^2+ until the intramitochondrial Ca^2+ concentration reaches the threshold for mPTP activation. Once the pore is activated, mitochondrial integrity is compromised and the stored Ca^2+ is released. The distribution of Ca^2+ between extra- and intra-mitochondrial compartments can be measured in real time with the use of membrane-impermeant Ca^2+ sensitive fluorescent dyes. Depending on the configuration of the assay, inhibition or modulation of the mPTP either delays the opening of the pore or increases the concentration of Ca^2+ required to induce mPTP opening.
MPTP activity was measured in mitochondria freshly isolated from female Sprague Dawley (250 to 300 gram) rat livers using the following method. Cervical dislocation was performed on the rat. The liver was then perfused in-situ with ˜40 ml cold Dulbecco's Phosphate Buffered Saline (DPBS) prior to dissection and transferred into 30 ml Isolation Buffer (250 mM Sucrose, 10 mM KCl, 1 mM EGTA, 1 mM EDTA, 25 mM HEPES, adjusted to pH 7.5 with 1M NaOH). Each lobe of the liver was then removed from the buffer, minced using tweezers and a scalpel into ˜5 mm pieces then transferred into a 50 ml Potterton dounce homogenization tube on ice containing 30 ml ice-cold centrifugation buffer (300 mM Trehalose, 25 mM HEPES, 1 mM EGTA, 1 mM EDTA, 10 mM KCl, adjusted to pH 7.5 with 1M NaOH and supplemented with 0.1% bovine serum albumin (BSA) and complete protease inhibitor cocktail (one tablet of inhibitor per 50 mls of buffer). Homogenisation was carried out using a teflon pestle at 1800 rpm. The slurry was centrifuged at 800 g for 10 min at 4° C., then the supernatant centrifuged at 10,000 g for 10 min. The pellet was washed once with FLIPR assay buffer (75 mM Mannitol, 25 mM Sucrose, 5 mM Potassium Phosphate Monobasic, 20 mM Tr is base, 100 mM KCl, 0.1% BSA adjusted to pH 7.4 with 5M HCl) centrifuged again, then resuspended in FLIPR assay buffer to a concentration of 8.8 mg/ml protein.
Tested compounds (10 mM stock in DMSO) were serially diluted in DMSO in half log steps to generate 10 test concentrations (final concentrations in assay 30 μM to 1 nM). An intermediate dilution of 5 μl DMSO samples into 247 μl FLIPR assay buffer was carried out prior to transfer of 5 μl into duplicate wells of a 384 well polypropylene assay plate. Control wells were 0.5% (v/v) DMSO and 5 μM cyclosporin A.
A stock mitochondria/Fluo5N assay solution was prepared in 5.6 ml FLIPR assay buffer (at RT) supplemented with succinate disodium salt (10 mM), rotenone (1 μM), Fluo5N pentapotassium salt (2 μM) and 1 ml mitochondria suspension, then transferred (15 μl) into the assay plate containing test compounds and incubated for 10 min at RT. Assay plates were then transferred to a FLIPR Tetra plate reader (Molecular Devices). Dye fluorescence was then measured every 3 sec for a total of 10 min. After 12 sec, a 2.5 μl bolus of CaCl2 (75 μM) was added from a source plate containing 675 μM CaCl2 in FLIPR assay buffer. IC50 values for tested compounds were calculated using the fluorescence value collected at the 10 min timepoint with % inhibition calculated using the DMSO control and cyclosporin A values as […] respectively.

[1] = Hepatocyte clearance assay, primary rat hepatocytes; assay type: in vitro ADME; conditions: average value from two experiments
Method: (§1) In vitro clearance studies were performed in primary rat and human hepatocytes (BioIVT). Vials of cryopreserved rat or human hepatocytes were thawed in a 37° C. water bath for 2 min. Cells were transferred into thawing medium (Williams' Medium E containing 30% Percoll, 1×GlutaMAX-1, 15 mM HEPES, 5% fetal bovine serum (FBS), 4 μg/ml insulin, 1 μM dexamethasone), centrifuged at 100 g for 10 min then resuspended in culture medium (Leibovitz's L-15 Medium) at a concentration of 0.5×10^6 viable cells/mL (number of viable cells assessed using AO/PI staining). Hepatocytes (198 μL) were transferred into wells of a 96-well non-coated plate and placed in a 37° C. incubator for 10 min. Test compound solutions were prepared from 10 mM stocks in DMSO, diluted to 100 μM in 50% (v/v in water) acetonitrile. Test compound samples (2 μl) were added to each well of hepatocytes and incubated at 37° C. […] Peak areas were determined from extracted ion chromatograms. The slope value, k, was determined by linear regression of the natural logarithm of the remaining percentage of the parent drug vs. incubation time curve. The in vitro half-life (in vitro t½) was determined from the slope value: in vitro t½=0.693/k. […]

[2] = Hepatocyte clearance assay, primary human hepatocytes; assay type: in vitro ADME; conditions: average value from two experiments
Method: as §1

[3] = PBS and FaSSIF solubility; assay type: physicochemical; conditions: for solubility at 2 h: FaSSIF, kinetic from dmso stock, Fasted state simulated intestinal fluid, 2 hr at 25° C.
Method: Test compounds were prepared as 10 mM stocks in DMSO and 15 μl samples transferred in duplicate into 1.5 mL glass flat bottom vials (BioTech Solutions). Fasted state simulated intestinal fluid (FaSSIF) or PBS (pH 7.4) was added to each vial to final volume of 500 μl. One PTFE encapsulated stir stick (V&P Scientific) was placed in each vial before sealing with PTFE/SIL plugs (BioTech Solutions). Vials were shaken at 1100 rpm for 2 hr at 25° C. Samples were then filtered through MultiScreen Solvinert filter plates (Millipore) via vacuum filtration. Aliquots of filtrate (5 μl) plus 5 μl DMSO were diluted in 490 μl 50% acetonitrile in water containing internal standard. The filtrate was analysed and quantified against a standard of known concentration using LC-MS/MS. Solubility values of the test compound and control compound were calculated as follows: [Sample]=(Area ratiossample*INJ VOL STD*DFSample*[STD])/(Area ratio STD*INJ VOLSample).

Structure (SMILES): Cc1n[nH]c2cc(/C=C/C(=O)N[C@@H]3CCCC[C@H]3C)ccc12 (racemic) [Example 43, Racemic-(E)-3-(3-methyl-1H-indazol-6-yl)-N-((1R,2R)-2-methylcyclohexyl)acrylamide]
mPTP Rat liver pIC50 (mPTP): 6.3

Structure (SMILES): Cc1c(F)cccc1NC(=O)/C=C/c1ccc2cn[nH]c2c1 [Comparative Example 1, (E)-N-(2-methyl-3-fluorophenyl)-3-(1H-indazol-6-yl)acrylamide, reference compound]
Rat heps Clint uL/min/10^6 cells [1]: 89 uL/min/10^6 cells
Human heps Clint uL/min/10^6 cells [2]: 13 uL/min/10^6 cells
Solubility PBS uM (pH 7.4) ([3]; PBS pH 7.4, 2 hr at 25° C.): 0.9 uM

Structure (SMILES): O=C(/C=C/c1ccc2c(C(F)(F)F)n[nH]c2c1)NC1CCc2ccccc21 (stereo not drawn) [Example 28, (E)-N-(2,3-dihydro-1H-inden-1-yl)-3-(3-(trifluoromethyl)-1H-indazol-6-yl) acrylamide]
mPTP Rat liver pIC50 (mPTP): 6.7

Other lines, results leading:

hepatocyte CLint at 1 µM ([1]; primary rat hepatocytes (cryopreserved), read-out: Rat heps Clint uL/min/10^6 cells): 37.9 µL/min/1e6 cells
mPTP Rat liver pIC50 (mPTP): 7.7
hepatocyte CLint at 1 µM ([2]; primary human hepatocytes (cryopreserved), read-out: Human heps Clint uL/min/10^6 cells): 9.4 µL/min/1e6 cells
solubility at 2 h [3]: 9.2 µM (≈ 3.2 µg/mL)
Structure (SMILES): Cc1n[nH]c2cc(/C=C/C(=O)N[C@H]3c4ccccc4OC[C@@H]3C)ccc12 (single isomer, unassigned) [Example 65c]

solubility at 2 h [3]: 18 µM (≈ 5.62 µg/mL)
Structure (SMILES): Cc1c(F)cccc1NC(=O)/C=C/c1ccc2oc(=O)[nH]c2c1 [Example 6, (E)-N-(3-fluoro-2-methylphenyl)-3-(2-oxo-2,3-dihydrobenzo[d]oxazol-5-yl)acrylamide]

mPTP Rat liver pIC50 (mPTP): 6.6
Structure (SMILES): O=C(/C=C/c1cc2[nH]nnc2cc1F)NC1CCc2ccccc21 (stereo not drawn) [Example 27, (E)-N-(2,3-dihydro-1H-inden-1-yl)-3-(5-fluoro-1H-benzo[d][1,2,3]triazol-6-yl) acrylamide]

mPTP Rat liver pIC50 (mPTP): 8.2
Structure (SMILES): CO[C@H]1Cc2ccccc2[C@@H]1NC(=O)/C=C/c1ccc2c(Cl)n[nH]c2c1 [Example 72, (E)-3-(3-chloro-1H-indazol-6-yl)-N-((1S,2S)-2-methoxy-2,3-dihydro-1H-inden-1-yl)acrylamide]
